Measurements from patent publication US20080003635A1, “High Throughput Collagen Synthesis Assay” (InterMune, Inc., priority 2006, published 2008).
Read-outs that look alike come from different tables or passages of the source.

System: Human lung fibroblast cells HFL1
Test: cells
Type: cell-based
Experimental: Human lung fibroblast cells HFL1 were seeded as 5×10^4 cells/well in 48-well plate and cultured for 3-7 days in FK12 medium supplemented with 10% heat inactivated fetal calf serum, 2 mM L-glutamine, streptomycin (100 μg/ml), and penicillin (100 units/ml). […] Medium was removed and cells were fixed to the plate with 0.5% glutaraldehyde, prepared in 1× phosphate-buffered-saline (PBS), for 30 minutes at room temperature. Glutaraldehyde was removed, cells were washed with ddH2O and the first 24 wells, which were used to determine collagen synthesis, were treated with 0.5 M acetic acid for 30 minutes, while the second 24 wells were stained with 0.1% crystal violet for viability for 30 minutes at room temperature. After all of the wells were washed with ddH2O, 250 μl of Sirius Red was added to acetic acid-treated cells for 2 hours. The Sirius Red was then removed, and the wells were washed with ddH2O. Absorbed Sirius Red and crystal violet were eluted with 300 μl of alkaline solution and 0.1 M citric acid (pH: 4.2) prepared in 50% ethanol, respectively.
Absorbances of eluted Sirius Red and crystal violet were determined at 540 and 600 nm. The extent of collagen accumulation was determined by normalizing the levels of induced collagen to cell density.

Cc1ccc(=O)n(-c2ccccc2)c1 [P, pirfenidone]
fold induction at 1000 µM (HFL1, 24 h, read-out: Fold Induction of Collagen, 250 pg/ml TGF-β, 24 hrs., P 1 mM, A 300 pg/mL): 0.973 | fold induction at 1000 µM (HFL1, 24 h, read-out: Fold Induction of Collagen, 500 pg/ml TGF-β, 24 hrs., P 1 mM, A 300 pg/mL): 0.98 | fold induction at 1000 µM (HFL1, 24 h, read-out: Fold Induction of Collagen, 1000 pg/ml TGF-β, 24 hrs., P 1 mM, A 300 pg/mL): 0.998 | fold induction at 1000 µM (HFL1, 48 h, read-out: Fold Induction of Collagen, 250 pg/ml TGF-β, 48 hrs., P 1 mM, A 300 pg/mL): 0.997 | fold induction at 1000 µM (HFL1, 48 h, read-out: Fold Induction of Collagen, 500 pg/ml TGF-β, 48 hrs., P 1 mM, A 300 pg/mL): 0.884 | fold induction at 1000 µM (HFL1, 48 h, read-out: Fold Induction of Collagen, 1000 pg/ml TGF-β, 48 hrs., P 1 mM, A 300 pg/mL): 0.954 | fold induction at 1000 µM (HFL1, 72 h, read-out: Fold Induction of Collagen, 250 pg/ml TGF-β, 72 hrs., P 1 mM, A 300 pg/mL): 0.928 | fold induction at 1000 µM (HFL1, 72 h, read-out: Fold Induction of Collagen, 500 pg/ml TGF-β, 72 hrs., P 1 mM, A 300 pg/mL): 0.931 | fold induction at 1000 µM (HFL1, 72 h, read-out: Fold Induction of Collagen, 1000 pg/ml TGF-β, 72 hrs., P 1 mM, A 300 pg/mL): 0.917
